Laboratory results published in ChEMBL document CHEMBL4130461, “New chemotype of selective and potent inhibitors of human delta 24-dehydrocholesterol reductase” (Eur J Med Chem, 2017).
Structures can show the parent of a compound that is named as a salt. Active and inactive are the calls of the source. The rule behind the calls is not given here.

How the values were obtained:
HL-60 [1] = assay: Induction of sterol accumulation in human HL60 cells at 0.1 uM incubated for 24 hrs by GC-MS analysis; type: functional, cell-based
HL-60 [2] = assay: Induction of sterol accumulation in human HL60 cells assessed as desmosterol accumulation at 1 uM incubated for 24 hrs by GC-MS analysis; type: functional, cell-based
HL-60 [3] = assay: Induction of sterol accumulation in human HL60 cells assessed as desmosterol accumulation at 50 uM incubated for 24 hrs by GC-MS analysis; type: functional, cell-based
HL-60 [4] = assay: cells; details: Homo sapiens
Description: Cytotoxicity in human HL60 cells by MTT assay

HL-60 [5] = assay: Induction of sterol accumulation in human HL60 cells at 1 uM incubated for 24 hrs by GC-MS analysis; type: functional, cell-based
HL-60 [6] = assay: Induction of sterol accumulation in human HL60 cells at 50 uM incubated for 24 hrs by GC-MS analysis; type: functional, cell-based
HL-60 [7] = assay: Cytotoxicity in human HL60 cells at 50 uM by MTT assay; type: cell-based; details: hl-60, 50 µM
Mus musculus [8] = assay: Induction of desmosterol accumulation in C57BL/6 mouse blood at 500 ug/day, iv dosed daily for 5 days byGC-MS analysis; type: functional
[9] = Drug metabolism in human HL60 cells at 10 uM incubated for 24 hrs by GC-MS analysis; type: ADME, cell-based; details: hl-60, 24 h
Mus musculus [10] = assay: Reduction in cholesterol level in C57BL/6 mouse blood at 500 ug/day, iv dosed daily for 5 days byGC-MS analysis; type: functional, organism-based
Mus musculus [11] = assay: Liver toxicity in C57BL/6 mouse assessed as effect on AST levels at 500 ug/day, iv dosed daily for 5 days; type: organism-based; details: in vivo, 120 h
HL-60 [12] = assay: Intracellular drug accumulation in human HL60 cells at 10 uM incubated for 24 hrs by GC-MS analysis; type: ADME, cell-based; details: hl-60, 24 h
Mus musculus [13] = assay: Liver toxicity in C57BL/6 mouse assessed as effect on ALT levels at 500 ug/day, iv dosed daily for 5 days; type: organism-based; details: in vivo, 120 h
Mus musculus [14] = assay: Acute liver toxicity in C57BL/6 mouse at 500 ug/day, iv dosed daily for 5 days; type: organism-based; details: in vivo, 120 h
HL-60 [15] = assay: Extracellular drug accumulation in human HL60 cells at 10 uM incubated for 24 hrs by GC-MS analysis; type: ADME, cell-based; details: hl-60, 24 h
HL-60 [16] = assay: Induction of sterol accumulation in human HL60 cells assessed as lathosterol accumulation at 50 uM incubated for 24 hrs by GC-MS analysis; type: functional, cell-based
HL-60 [17] = assay: Induction of sterol accumulation in human HL60 cells assessed as lathosterol accumulation at 1 uM incubated for 24 hrs by GC-MS analysis; type: functional, cell-based
[18] = molecular target: T1, Lathosterol oxidase (Homo sapiens) (UniProt O75845); assay: Inhibition of C5-desaturase in human HL60 cells assessed as compound level causing induction of sterol accumulation incubated for 24 hrs by GC-MS analysis; type: cell-based
T1 sequence (whole entry): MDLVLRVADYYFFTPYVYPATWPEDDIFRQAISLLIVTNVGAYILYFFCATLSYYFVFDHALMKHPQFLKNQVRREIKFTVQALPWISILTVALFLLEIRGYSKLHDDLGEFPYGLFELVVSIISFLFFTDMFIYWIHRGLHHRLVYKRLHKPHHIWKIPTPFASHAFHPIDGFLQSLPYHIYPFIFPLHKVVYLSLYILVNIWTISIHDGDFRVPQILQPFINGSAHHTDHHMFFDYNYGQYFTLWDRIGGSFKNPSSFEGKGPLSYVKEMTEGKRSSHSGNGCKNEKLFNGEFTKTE

HL-60 [19] = assay: Induction of sterol accumulation in human HL60 cells assessed as zymosterol accumulation at 1 uM incubated for 24 hrs by GC-MS analysis; type: functional, cell-based
HL-60 [20] = assay: Induction of sterol accumulation in human HL60 cells assessed as holesta-7,24-dien-3beta-ol accumulation at 1 uM incubated for 24 hrs by GC-MS analysis; type: functional, cell-based
HL-60 [21] = assay: Induction of sterol accumulation in human HL60 cells assessed as zymosterol accumulation at 50 uM incubated for 24 hrs by GC-MS analysis; type: functional, cell-based
HL-60 [22] = assay: Induction of sterol accumulation in human HL60 cells assessed as holesta-7,24-dien-3beta-ol accumulation at 50 uM incubated for 24 hrs by GC-MS analysis; type: functional, cell-based

Row | IC50 (HL-60 [4]) [µM] | Compound | Activity (HL-60 [2]) | Activity (HL-60 [3]) | Activity (HL-60 [7]) | other results
1 |  | CC(C)=CCC[C@@H](C)[C@H]1CC[C@H]2C3=C(CC[C@]12C)[C@@]1(C)CC[C@H](O)C[C@@H]1CC3 |  |  |  | Activity (HL-60 [1]): inactive
2 | > 50 | CNC(=O)[C@@H](C)[C@H]1CC[C@H]2C3=CC[C@H]4C[C@@H](OC(C)=O)CC[C@]4(C)[C@H]3CC[C@]12C | Active | Active |  | 
3 | > 50 | CC(=O)O[C@H]1CC[C@@]2(C)[C@@H](CC=C3[C@@H]2CC[C@]2(C)[C@@H]([C@H](C)C(=O)O)CC[C@@H]32)C1 |  |  |  | Activity (HL-60 [5]): inactive; Activity (HL-60 [6]): inactive
4 | 10 | C/C=C/C(=O)OC[C@@H](C)[C@H]1CC[C@H]2C3=CC[C@H]4C[C@@H](OC(C)=O)CC[C@]4(C)[C@H]3CC[C@]12C | Active |  | Toxic | 
5 | > 50 | CC(=O)O[C@H]1CC[C@@]2(C)[C@@H](CC=C3[C@@H]2CC[C@]2(C)[C@@H]([C@H](C)C(=O)N(C)C)CC[C@@H]32)C1 |  |  |  | Activity (HL-60 [5]): inactive; Activity (HL-60 [6]): inactive
6 | 18 | CCONC(=O)[C@@H](C)[C@H]1CC[C@H]2C3=CC[C@H]4C[C@@H](OC(C)=O)CC[C@]4(C)[C@H]3CC[C@]12C |  |  | Toxic | Activity (HL-60 [5]): inactive
7 |  | CC(C)=CCC[C@@H](C)[C@H]1CC[C@H]2C3=CC[C@H]4C[C@@H](O)CC[C@]4(C)[C@H]3CC[C@]12C |  |  |  | Activity (HL-60 [1]): inactive
8 | 18 | CC(=O)O[C@H]1CC[C@@]2(C)[C@@H](CC=C3[C@@H]2CC[C@]2(C)[C@@H]([C@H](C)C(=O)NO)CC[C@@H]32)C1 |  |  | Toxic | Activity (HL-60 [5]): inactive
9 | > 50 | CC(=O)O[C@H]1CC[C@@]2(C)[C@@H](CC=C3[C@@H]2CC[C@]2(C)[C@@H]([C@H](C)CO)CC[C@@H]32)C1 | Active | Active |  | 
10 | > 50 | C/C=C(\C)C(=O)OC[C@@H](C)[C@H]1CC[C@H]2C3=CC[C@H]4C[C@@H](OC(C)=O)CC[C@]4(C)[C@H]3CC[C@]12C | Active | Active |  | 
11 | 47 | CC(=O)O[C@H]1CC[C@@]2(C)[C@@H](CC=C3[C@@H]2CC[C@]2(C)[C@@H]([C@H](C)C(=O)N(C)CC(C)C)CC[C@@H]32)C1 |  | Active |  | Activity (HL-60 [5]): inactive
12 | > 50 | CONC(=O)[C@@H](C)[C@H]1CC[C@H]2C3=CC[C@H]4C[C@@H](OC(C)=O)CC[C@]4(C)[C@H]3CC[C@]12C | Active | Active |  | 
13 | > 50 | C[C@H](CO)[C@H]1CC[C@H]2[C@@H]3CC=C4C[C@@H](O)CC[C@]4(C)[C@H]3CC[C@]12C | Active | Active |  | 
14 | > 50 | CC(=O)O[C@H]1CC[C@@]2(C)[C@@H](CC=C3[C@@H]2CC[C@]2(C)[C@@H]([C@H](C)C=O)CC[C@@H]32)C1 |  |  |  | Activity (HL-60 [5]): inactive; Activity (HL-60 [6]): inactive
15 | > 50 | CCC(=O)NC[C@@H](C)[C@H]1CC[C@H]2C3=CC[C@H]4C[C@@H](OC(C)=O)CC[C@]4(C)[C@H]3CC[C@]12C | Active | Active |  | 
16 | 16 | CN1CCN(CCCN2c3ccccc3Sc3ccc(C(F)(F)F)cc32)CC1 [TRIFLUOPERAZINE HYDROCHLORIDE] | Active | Active |  | Activity (HL-60 [16]): Active; Activity (HL-60 [17]): Active; INH [18]: 1 to 50 µM
17 | > 50 | C[C@H](CO)[C@H]1CC[C@H]2C3=CC[C@H]4C[C@@H](O)CC[C@]4(C)[C@H]3CC[C@]12C | Active | Active |  | Drug uptake (HL-60 [12]): 1 µM; Drug uptake (HL-60 [15]): 6 µM
18 | 10 | CCN(CC)CCOc1ccc(C(O)(Cc2ccc(Cl)cc2)c2ccc(C)cc2)cc1 (stereo not drawn) [TRIPARANOL] | Active |  | Toxic | Activity (HL-60 [17]): Active; Activity (HL-60 [19]): Active; Activity (HL-60 [20]): Active
19 | > 50 | CCCC(=O)NC[C@@H](C)[C@H]1CC[C@H]2C3=CC[C@H]4C[C@@H](OC(C)=O)CC[C@]4(C)[C@H]3CC[C@]12C | Active |  |  | Activity (HL-60 [17]): Active; Activity (HL-60 [21]): Active; Activity (HL-60 [22]): Active
20 | 13 | CCCC(=O)N(C)C[C@@H](C)[C@H]1CC[C@H]2C3=CC[C@H]4C[C@@H](OC(C)=O)CC[C@]4(C)[C@H]3CC[C@]12C | Active |  | Toxic | 
21 |  | CC(C)CCC[C@@H](C)[C@H]1CC[C@H]2C3=CC[C@H]4C[C@@H](O)CC[C@]4(C)[C@H]3CC[C@]12C |  |  |  | Activity (HL-60 [1]): inactive
22 | 20 | CCC(=O)N(C)C[C@@H](C)[C@H]1CC[C@H]2C3=CC[C@H]4C[C@@H](OC(C)=O)CC[C@]4(C)[C@H]3CC[C@]12C | Active |  | Toxic | 
23 | 20 | CNC[C@@H](C)[C@H]1CC[C@H]2C3=CC[C@H]4C[C@@H](OC(C)=O)CC[C@]4(C)[C@H]3CC[C@]12C | Active |  | Toxic | Activity (HL-60 [17]): Active; Activity (HL-60 [19]): Active; Activity (HL-60 [20]): Active
24 | 21 | CC(=O)O[C@H]1CC[C@@]2(C)[C@@H](CC=C3[C@@H]2CC[C@]2(C)[C@@H]([C@H](C)COC(=O)CN(C)C)CC[C@@H]32)C1 | Active |  | Toxic | 
25 | > 50 | CC(=O)O[C@H]1CC[C@@]2(C)[C@@H](CC=C3[C@@H]2CC[C@]2(C)[C@@H]([C@H](C)CN)CC[C@@H]32)C1 | Active | Active |  | 
26 | 3 | C[C@H](/C=C/c1cc[n+](C)cc1)[C@H]1CC[C@H]2C3=CC[C@H]4C[C@@H](O)CC[C@]4(C)[C@H]3CC[C@]12C.[I-] | Active |  | Toxic | 

Row | Compound | IC50 (HL-60 [4]) [µM] | Activity (HL-60 [2]) | Activity (HL-60 [3]) | Activity (HL-60 [7]) | other results
27 | C[C@H](CCC(=O)N(C)C)[C@H]1CC[C@H]2[C@@H]3CC=C4C[C@@H](O)CC[C@]4(C)[C@H]3CC[C@]12C | > 50 | Active | Active |  | 
28 | C[C@H](O)[C@H]1CC[C@H]2[C@@H]3CC=C4C[C@@H](O)CC[C@]4(C)[C@H]3CC[C@]12C | > 50 |  |  |  | Activity (HL-60 [5]): inactive; Activity (HL-60 [6]): inactive
29 | CCN(CC)CCO[C@H]1CC[C@@]2(C)C(=CC[C@@H]3[C@@H]2CC[C@]2(C)C(=O)CC[C@@H]32)C1 | > 50 |  |  |  | 
30 | CC(=O)O[C@H]1CC[C@@]2(C)[C@@H](CC=C3[C@@H]2CC[C@]2(C)[C@@H]([C@H](C)COC=O)CC[C@@H]32)C1 | > 50 | Active | Active |  | Activity (Mus musculus [8]): 1 µg/mL; Drug metabolism [9]: Metabolite_Notdetected; Activity (Mus musculus [10]): Active; Activity (Mus musculus [11]): Non-Toxic; Drug uptake (HL-60 [12]): 1 µM; Activity (Mus musculus [13]): Non-Toxic; Activity (Mus musculus [14]): Non-Toxic; Drug uptake (HL-60 [15]): 2 µM
